Measurements published in patent US9045425B2, “Solid forms of N-[2,4-bis(1,1-dimethylethyl)-5-hydroxyphenyl]-1,4-dihydro-4-oxoquinoline-3-carboxamide” (Vertex Pharmaceuticals Incorporated, priority 2012, dated 2015).

How the values were obtained:
[1] = Polymorph screen solvent systems: solubility noted when preparing saturated solutions; format: physicochemical; conditions: solvent system: water
Procedure: A saturated solution of Compound 1, Form XX was made by preparing 1 mL slurries using acetonitrile (ACN), ACN-water (75:25), methylethyl ketone (MEK), or MEK-water (99:1, 90:10, or 80:20) in vials. After 24 hours in capped HPLC vials, the slurries were then filtered to remove residual solids. Approximately 2 additional milligrams of Compound 1 was added to each vial containing a saturated solution. Next, the vials were heated to 70° C. with stirring until all of the material was completely dissolved. Immediately after, the samples were submerged into an ice bath. The product, which precipitated as a white powder within 1 minute, was isolated by filtration and analyzed by XRPD and TGA.
A saturated solution was made by slurrying Compound 1, Form XX in 5 mL of solvent (ACN, isopropyl acetate (IPAc), or MEK) or 1 mL of solvent for the MEK/Water solvent system. After 24 hours, the residual solids were removed by filtration. The saturated solutions were then subjected to rapid solvent evaporation by blowing nitrogen (N2) gas over the samples with a Pierce Model 18780 Reacti-Vap evaporating unit for four hours. The product precipitated as a white powder and the form was analyzed by XRPD and TGA.
A saturated solution of Compound 1, Form XX was made by slurrying either in 5 mL of solvent in the ACN, IPAc, and MEK solvent systems, 2 mL total solvent for IPAc/water, or 1 mL total solvent for the MEK/water solvent systems. After 24 hours, the residual solids were removed by filtration. 20 mL of antisolvent was then quickly added to the saturated solutions to induce precipitation. Hexane was used as the antisolvent in the MEK and IPAc solvent systems, and MTBE was used as the antisolvent in the ACN solvent systems, as a consequence of the immiscibility between ACN and hexane. The product precipitated as a white powder and the form was analyzed by XRPD and TGA.

[2] = Desolvation: standing open under ambient conditions or in vacuum oven, form checked by XRPD; format: physicochemical
Procedure: A polymorph screen was conducted in the methylethyl ketone (MEK)/water solvent systems, as well as in the acetonitrile (ACN), ACN/water and isopropyl acetate solvent systems. Polymorph screening techniques included crash cooling, solvent evaporation, antisolvent addition, and slurry experiments. Slurry experiments were performed on an IKA RCT hot plate with magnetic stirring set to 710 rpm. The temperature was controlled with an IKA ETS-D5 thermocouple. Solvent volumes were measured and transferred with Gibson Pipetteman volumetric pipettes. New forms that were identified as solvates were subjected to desolvation under two potential conditions: (1) drying in a vacuum oven at 40° C. and (2) sitting undisturbed under ambient conditions in a fume hood. Physical characterization of all forms proceeded by X-ray powder diffraction (XRPD) and thermogravimetric analysis (TGA).
New forms of Compound 1 obtained in the polymorph screen suspected of being solvates were subjected to further form investigation through attempted desolvation. Forms D, E, F, G, H, I, J, K, L and Hydrate A were left to stand open to the atmosphere under ambient conditions and or were placed in a vacuum oven.

Compound: CC(C)(C)c1cc(C(C)(C)C)c(NC(=O)c2c[nH]c3ccccc3c2=O)cc1O [Compound 1, Form XX, N-[2,4-bis(1,1-dimethylethyl)-5-hydroxyphenyl]-1,4-dihydro-4-oxoquinoline-3-carboxamide]
- Solubility in solvent system (antisolvent addition results) [1]: not soluble
- Solubility in solvent system (crash cooling results) [1]: not soluble
- Solubility in solvent system (solvent evaporation results) [1]: not soluble

Compound: CC(C)(C)c1cc(C(C)(C)C)c(NC(=O)c2c[nH]c3ccccc3c2=O)cc1O [Form E, N-[2,4-bis(1,1-dimethylethyl)-5-hydroxyphenyl]-1,4-dihydro-4-oxoquinoline-3-carboxamide]
- XRPD pattern after desolvation attempt ([2]; after standing under ambient conditions and after sitting in the vacuum oven): same XRPD patterns

Compound: CC(C)(C)c1cc(C(C)(C)C)c(NC(=O)c2c[nH]c3ccccc3c2=O)cc1O [Form H, N-[2,4-bis(1,1-dimethylethyl)-5-hydroxyphenyl]-1,4-dihydro-4-oxoquinoline-3-carboxamide]
- Solid form after desolvation attempt ([2]; ambient conditions for one month): same Form H pattern
- Solid form after desolvation attempt ([2]; vacuum oven for one month): converted to a semi-crystalline form

Compound: CC(C)(C)c1cc(C(C)(C)C)c(NC(=O)c2c[nH]c3ccccc3c2=O)cc1O [Form G, N-[2,4-bis(1,1-dimethylethyl)-5-hydroxyphenyl]-1,4-dihydro-4-oxoquinoline-3-carboxamide]
- Solid form after desolvation attempt ([2]; vacuum oven for one month): became x-ray amorphous

Compound: CC(C)(C)c1cc(C(C)(C)C)c(NC(=O)c2c[nH]c3ccccc3c2=O)cc1O [Form K, N-[2,4-bis(1,1-dimethylethyl)-5-hydroxyphenyl]-1,4-dihydro-4-oxoquinoline-3-carboxamide]
- Solid form after desolvation attempt ([2]; ambient conditions and vacuum oven for 2 months): converted to a new crystalline form of Compound 1 designated Form S

Compound: CC(C)(C)c1cc(C(C)(C)C)c(NC(=O)c2c[nH]c3ccccc3c2=O)cc1O [Form L, N-[2,4-bis(1,1-dimethylethyl)-5-hydroxyphenyl]-1,4-dihydro-4-oxoquinoline-3-carboxamide]
- Solid form after desolvation attempt ([2]; ambient conditions for two weeks): same Form L pattern
- Solid form after desolvation attempt ([2]; vacuum oven for 24 hours): converted to x-ray amorphous

Compound: CC(C)(C)c1cc(C(C)(C)C)c(NC(=O)c2c[nH]c3ccccc3c2=O)cc1O [Form D, N-[2,4-bis(1,1-dimethylethyl)-5-hydroxyphenyl]-1,4-dihydro-4-oxoquinoline-3-carboxamide]
- Solid form after desolvation attempt ([2]; ambient conditions and vacuum oven for approximately 1 month): converted to a new crystalline form of Compound 1 designated Form R
